According to patent publication US20170073305A1, “FATTY ACID AMIDES, COMPOSITIONS AND METHODS OF USE” (Catabasis Pharmaceuticals, Inc., priority 2011, published 2017):

Tests used:
NF-κB = NF-κB luciferase reporter assay in RAW 264.7 macrophages; type: cell-based; conditions: Mus musculus, RAW264.7; RAW 264.7 3×NF-κB luciferase reporter cells, 2 hour pretreatment, 200 ng/ml LPS for 3 hours; read-out: NF-kB inhibitory activity IC50
Procedure: RAW 264.7 cells stably expressing a 3×NF-κB response element-drive luciferase reporter were seeded into 96 well plates in sera-free medium (Optimem) 18 hours prior to compound application. Compounds of the invention were prepared by first making 100 mM stock solutions in EtOH. Stock solutions were then diluted 1:100 in low LPS FBS (Gemini BenchMark 100-106), mixed vigorously and allowed to incubate at room temperature for 30 minutes. 1:2 serial dilutions were then made in FBS supplemented with 1% EtOH, mixed vigorously, and again allowed to incubate at room temperature for 30 minutes before adding to RAW 264.7 reporter cells (final concentrations: 10% FBS, 100 uM highest compound dilution, 0.1% EtOH) for a 2 hour pretreatment prior to stimulation with LPS. Cells were then stimulated with 200 ng/ml LPS or vehicle control for 3 hours in the presence of the compounds of the invention. A set of six vehicles was left unstimulated with LPS in order to measure the assay floor. AlamarBlue viability dye (Invitrogen) was added to cells simultaneously with the delivery of LPS (final AlamarBlue concentration of 10%). After the 3 h incubation period with LPS, cell viability was measured by reading fluorescence (excitation 550 nm, emission 595 nm) with a Perkin Elmer Victor V plate reader. Then cell media was aspirated from each well. Luciferase signal was then developed by addition of the Britelite Plus reagent (Perkin Elmer). Luciferase activity was measured with the Perkin Elmer Victor V plate reader. NF-κB activity was expressed as a percent of the vehicle control wells (stimulated with LPS). Compounds were tested at 6 dose point titrations in triplicate to determine IC50 values. Table 1 summarizes the IC50 values for a number of fatty acid amides in this NF-κB luciferase reporter assay.

[1] = tested on: Cystinotic fibroblasts (cell line GM00008, Coriell Cell Repository); test: cystinotic fibroblast assay (cystine depletion, LC-MS/MS); type: cell-based; conditions: 50 μM, cells incubated 24 hours, cystine by LC-MS/MS, percentage of control (POC)
Excerpt: Nephropathic cystinosis is an orphan genetic lysosomal storage disorder characterized by a massive accumulation of crystalline cystine within cells. Affected individuals develop a proximal renal tubulopathy and progress, if untreated, to end-stage renal failure. Omran et al (Bioorg. Med. Chem. 2011, p, 3492) described a convenient in vitro system to quickly evaluate compounds that could deplete levels of cystine in cultured fibroblasts. Cystinotic fibroblasts (cell line GM00008, Coriell Cell Repository) were seeded in a 6-well plate and grown in DMEM/15% FBS until confluent. […] Protein quantification was accomplished by dissolving precipitated protein in 0.25 M NaOH and 1 M Tris (pH 7.5), and spectrophotometric measurement using the Bradford method. Compound I-9 was evaluated in this cystinotic fibroblast assay. The level of cystine in this cystinotic cell line was quantitated by LC-MS/MS. […] The level of cystine was expressed as the percentage of control (POC). […] The cystine level was determined as follows: To the 50 μL of supernatant, acetonitrile (400 μL) containing 200 ng/ml Internal standard (deuterated cystine) was added and mixture was vortexed for 1 min followed by centrifugation for 10 minutes. […] The concentration of Cystine was measured by LC-MS/MS. […]

Hmox1 = Hmox1 target gene expression in LPS-stimulated RAW264.7 macrophages; type: cell-based; conditions: RAW264.7, 1.6-50 μM, 2 hours pre-incubation, 100 ng/ml LPS 3 hours, relative to vehicle only control, FIG. 2
Procedure: RAW264.7 macrophages were seeded at a density of 100,000 cells/well in a 96-well plate in DMEM supplemented with 10% FBS and Penn/strep. 16 hours later, medium was aspirated and replaced with 90 uL/well of serum-free DMEM. Fatty acid amides were brought up in 100% EtOH to a concentration of 100 mM and then diluted 1:100 in 100% FBS for a 20× stock solution consisting of 1 mM compound and 1% EtOH. The fatty acid amide 20× stock solutions were diluted 1:2 in FBS supplemented with 1% EtOH for a 500 uM 10× stock solution. The 10× stock solutions were then serially diluted 1:2 in FBS supplemented with 1% EtOH and 10 μL of each dilution was added to the RAW246.7 cells to generate final concentrations of 50, 25, 12.5, 6.25, 3.12 and 1.6 μM. The compounds were allowed to pre-incubate for 2 hours before stimulation of 100 ng/ml LPS (10 μL of 1 μg/ml LPS is added to each well). Following 3 hours of LPS stimulation, cells were washed once in 1×PBS, aspirated dry, and flash frozen in liquid nitrogen. […] Transcript levels were then measured using ABI Taqman primer/probe assay kits, normalized to GAPDH using the deltaCt method, and the data expressed relative to vehicle only control. FIG. 2 summarizes the Hmox data on compound I-57 (cellular toxicity was assessed using alamar blue as indicator, abbreviated in the figure as AB). […]

IL-1β = IL-1β gene expression in LPS-stimulated RAW264.7 macrophages; type: cell-based; conditions: RAW264.7, 2 hours pre-incubation, 100 ng/ml LPS 3 hours, relative to vehicle only control, FIG. 1
Procedure: RAW264.7 macrophages were seeded at a density of 100,000 cells/well in a 96-well plate in DMEM supplemented with 10% FBS and Penn/strep. 16 hours later, medium was aspirated and replaced with 90 μL/well of serum-free DMEM. Fatty acid amides were brought up in 100% EtOH to a concentration of 100 mM and then diluted 1:100 in 100% FBS for a stock solution consisting of 1 mM compound and 1% EtOH. These stock solutions were then diluted 1:10 in FBS supplemented with 1% EtOH to generate a 100 μM of the fatty acid amide. 10 μL was then added to the RAW246.7 cells to generate final concentrations 10 μM of the fatty acid amide or 10 μM each DHA and MMF, along with vehicle only control. The compounds were allowed to pre-incubate for 2 hours before stimulation of 100 ng/ml LPS (10 μL of 1 μg/ml LPS was added to each well). Following 3 hours of LPS stimulation, cells were washed once in 1×PBS, aspirated dry, and flash frozen in liquid nitrogen. […] IL-1β transcript levels were then measured using Taqman primer/probe assay sets (Applied Biosystems), normalized to GAPDH using the deltaCt method, and the data expressed relative to vehicle only control. FIG. 1 summarizes the IL-1β gene expression data on compound I-57 (cellular toxicity was assessed using alamar blue as indicator, abbreviated in the figure as AB). […]

mice lacking cystinosin = conditions: 200 or 400 mg/kg orally for 7, 30 or 60 days, greatest effect in liver and kidney after 60 days; cited from earlier work

**Q.** With `CC/C=C\C/C=C\C/C=C\C/C=C\C/C=C\C/C=C\CCC(=O)O` [DHA, all-cis-4,7,10,13,16,19-docosahexaenoic acid, reference compound] as the molecule, how does the IC50 (NF-κB) read?
**A.** > 200 µM

**Q.** With `CC/C=C\C/C=C\C/C=C\C/C=C\C/C=C\CCCC(=O)O` [EPA, all-cis-5,8,11,14,17-eicosapentaenoic acid, reference compound] as the molecule, how does the IC50 (NF-κB) read?
**A.** > 200 µM

**Q.** Which “reduction in the cystine level” value [1] does the source give for `CC/C=C\C/C=C\C/C=C\C/C=C\C/C=C\CCCC(=O)NCCSSCCNC(C)=O` [I-9, (5Z,8Z,11Z,14Z,17Z)-N-(2-((2-acetamidoethyl)disulfanyl)ethyl)icosa-5,8,11,14,17-pentaenamide] here?
**A.** 68%

**Q.** With `CC/C=C\C/C=C\C/C=C\C/C=C\C/C=C\C/C=C\CCC(=O)Nc1nc2c(s1)C[C@H](NCCC)CC2` [I-21, (4Z,7Z,10Z,13Z,16Z,19Z)-N-((R)-6-(propylamino)-4,5,6,7-tetrahydrobenzo[d]thiazol-2-yl)docosa-4,7,10,13,16,19-hexaenamide] as the molecule, how does the IC50 (NF-κB) read?
**A.** < 200 µM

**Q.** For `CC/C=C\C/C=C\C/C=C\C/C=C\C/C=C\C/C=C\CCC(=O)N[C@@H](C)C(=O)N[C@@H]1[C@@H](O)[C@H](O)[C@@H](CO)O[C@H]1O` [I-47, (4Z,7Z,10Z,13Z,16Z,19Z)-N-((S)-1-oxo-1-(((2R,3R,4R,5S,6R)-2,4,5-trihydroxy-6-(hydroxymethyl)tetrahydro-2H-pyran-3-yl)amino)propan-2-yl)docosa-4,7,10,13,16,19-hexaenamide], which IC50 (NF-κB) is on record?
**A.** > 200 µM

**Q.** For `CC/C=C\C/C=C\C/C=C\C/C=C\C/C=C\C/C=C\CCC(=O)N[C@H](C(=O)N[C@@H]1[C@@H](O)[C@H](O)[C@@H](CO)O[C@H]1O)C(C)C` [I-48, (4Z,7Z,10Z,13Z,16Z,19Z)-N-((S)-3-methyl-1-oxo-1-(((2R,3R,4R,5S,6R)-2,4,5-trihydroxy-6-(hydroxymethyl)tetrahydro-2H-pyran-3-yl)amino)butan-2-yl)docosa-4,7,10,13,16,19-hexaenamide], which IC50 (NF-κB) is on record?
**A.** < 50 µM

**Q.** For `CC/C=C\C/C=C\C/C=C\C/C=C\C/C=C\C/C=C\CCC(=O)N[C@@H](CC(C)C)C(=O)N[C@@H]1[C@@H](O)[C@H](O)[C@@H](CO)O[C@H]1O` [I-49, (4Z,7Z,10Z,13Z,16Z,19Z)-N-((S)-4-methyl-1-oxo-1-(((2R,3R,4R,5S,6R)-2,4,5-trihydroxy-6-(hydroxymethyl)tetrahydro-2H-pyran-3-yl)amino)pentan-2-yl)docosa-4,7,10,13,16,19-hexaenamide], which IC50 (NF-κB) is on record?
**A.** < 50 µM

**Q.** With `CC/C=C\C/C=C\C/C=C\C/C=C\C/C=C\C/C=C\CCC(=O)NCCOCCOCCOC` [I-52, (4Z,7Z,10Z,13Z,16Z,19Z)-N-(2-(2-(2-methoxyethoxy)ethoxy)ethyl)docosa-4,7,10,13,16,19-hexaenamide] as the molecule, how does the IC50 (NF-κB) read?
**A.** < 50 µM

**Q.** With `CC/C=C\C/C=C\C/C=C\C/C=C\C/C=C\CCCC(=O)NCCOCCOCCOC` [I-57, (5Z,8Z,11Z,14Z,17Z)-N-(2-(2-(2-methoxyethoxy)ethoxy)ethyl)icosa-5,8,11,14,17-pentaenamide] as the molecule, how does the Hmox gene expression (Hmox1) read?
**A.** upregulation

**Q.** What about the IL-1β gene expression (IL-1β) of the same molecule?
**A.** decrease

**Q.** And the IC50 (NF-κB)?
**A.** < 50 µM

**Q.** Which “cystine levels of tissues” value (mice lacking cystinosin) does the source give for `NCCS` [cysteamine, reference compound] here?
**A.** reduce cystine levels of all tissues tested

**Q.** And the “reduction in the cystine level” value [1]?
**A.** 45%
